Assays:
Type in all cases: in vivo
Conditions in all cases: scale 0 to 100
kochia (Kochia scoparia) [1] = experiment: Test D preemergence
Source text: (§1) Seeds of plant species selected from bluegrass (annual bluegrass, Poa annua), blackgrass (Alopecurus myosuroides), canarygrass (Phalaris minor), chickweed (common chickweed, Stellaria media), cutleaf geranium (Geranium dissectum), galium (catchweed bedstraw, Galium aparine), downy bromegrass (Bromus tectorum), field poppy (Papaver rhoeas), field violet (Viola arvensis), green foxtail (Setaria viridis), deadnettle (henbit deadnettle, Lamium amplexicaule), Italian ryegrass (Lolium multiflorum), kochia (Kochia scoparia), lambsquarters (Chenopodium album), oilseed rape (Brassica napus), pigweed (Amaranthus retroflexus), chamomile (scentless chamomile, Matricaria inodora), Russian thistle (Salsola kali), speedwell (bird's-eye speedwell, Veronica persica), spring barley (Hordeum vulgare), spring wheat (Triticum aestivum), wild buckwheat (Polygonum convolvulus), wild mustard (Sinapis arvensis), wild oat (Avenafatua), wild radish (Raphanus raphanistrum), windgrass (Apera spica-venti), winter barley (Hordeum vulgare), and winter wheat (Triticum aestivum) were planted into a silt loam soil and treated preemergence with test chemicals formulated in a non-phytotoxic solvent mixture which included a surfactant.
(§2) At the same time, these species were planted in pots containing Redi-Earth® planting medium (Scotts Company, 14111 Scottslawn Road, Marysville, Ohio 43041) comprising spaghnum peat moss, vermiculite, wetting agent and starter nutrients and treated with postemergence applications of the test chemicals formulated in the same manner. Plants ranged in height from 2 to 18 cm (1- to 4-leaf stage). Treated plants and controls were maintained in a controlled growth environment for 14 to 21 days after which time all species were compared to controls and visually evaluated. Plant response ratings, summarized in Table D, are based on a scale of 0 to 100 where 0 is no effect and 100 is complete control. A dash (-) response means no test result.

[2] = test system: spring wheat (Triticum aestivum); experiment: Test D preemergence
Source text: as §1, §2

[3] = test system: winter wheat (Triticum aestivum); experiment: Test D preemergence
Source text: as §1, §2

[4] = test system: Italian ryegrass (Lolium multiflorum); experiment: Test D postemergence
Summary of the method: (§3)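 Greenhouse herbicide screen. Pre: silt loam, spray at planting. Post: 1–4 leaf, 2–18 cm. Readout: visual % control (0–100) at 14–21 DAT vs controls.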

[5] = test system: Russian thistle (Salsola kali); experiment: Test D postemergence
Summary of the method: as §3

[6] = test system: blackgrass (Alopecurus myosuroides); experiment: Test D postemergence
Summary of the method: as §3

[7] = test system: bluegrass (annual bluegrass, Poa annua); experiment: Test D postemergence
Summary of the method: as §3

[8] = test system: canarygrass (Phalaris minor); experiment: Test D postemergence
Summary of the method: as §3

[9] = test system: chamomile (scentless chamomile, Matricaria inodora); experiment: Test D postemergence
Summary of the method: as §3

[10] = test system: chickweed (common chickweed, Stellaria media); experiment: Test D postemergence
Summary of the method: as §3

[11] = test system: downy bromegrass (Bromus tectorum); experiment: Test D postemergence
Summary of the method: as §3

[12] = test system: field poppy (Papaver rhoeas); experiment: Test D postemergence
Summary of the method: as §3

[13] = test system: field violet (Viola arvensis); experiment: Test D postemergence
Summary of the method: as §3

[14] = test system: green foxtail (Setaria viridis); experiment: Test D postemergence
Summary of the method: as §3

kochia (Kochia scoparia) [15] = experiment: Test D postemergence
Summary of the method: as §3

[16] = test system: oilseed rape (Brassica napus); experiment: Test D postemergence
Summary of the method: as §3

[17] = test system: pigweed (Amaranthus retroflexus); experiment: Test D postemergence
Summary of the method: as §3

[18] = test system: speedwell (bird's-eye speedwell, Veronica persica); experiment: Test D postemergence
Summary of the method: as §3

[19] = test system: spring barley (Hordeum vulgare); experiment: Test D postemergence
Summary of the method: as §3

[20] = test system: spring wheat (Triticum aestivum); experiment: Test D postemergence
Summary of the method: as §3

For `Fc1cccc(Oc2ncc(C(F)(F)F)cn2)c1Oc1ncc(Cl)cn1` [Compound 42, 5-chloro-2-[2-fluoro-6-[[5-(trifluoromethyl)-2-pyrimidinyl]oxy]phenoxy]pyrimidine], the “Plant response rating, Kochia” value (kochia (Kochia scoparia) [1]; 16 g ai/ha) was 35, the “Plant response rating, Kochia” value (kochia (Kochia scoparia) [1]; 31 g ai/ha) was 65 and the “Plant response rating, Kochia” value (kochia (Kochia scoparia) [1]; 62 g ai/ha) was 100. For the same molecule, the “Plant response rating, Kochia” value (kochia (Kochia scoparia) [1]; 125 g ai/ha) was 100, the “Plant response rating, Wheat, Spring” value ([2]; 16 g ai/ha) was 0 and the “Plant response rating, Wheat, Spring” value ([2]; 31 g ai/ha) was 0. For the same molecule, the “Plant response rating, Wheat, Spring” value ([2]; 62 g ai/ha) was 15, the “Plant response rating, Wheat, Spring” value ([2]; 125 g ai/ha) was 65 and the “Plant response rating, Wheat, Winter” value ([3]; 16 g ai/ha) was 0. The “Plant response rating, Wheat, Winter” value ([3]; 31 g ai/ha) was 0, the “Plant response rating, Wheat, Winter” value ([3]; 62 g ai/ha) was 0 and the “Plant response rating, Wheat, Winter” value ([3]; 125 g ai/ha) was 50. For the same molecule, the “Plant response rating, Ryegrass, Italian” value ([4]; 16 g ai/ha) was 20, the “Plant response rating, Ryegrass, Italian” value ([4]; 31 g ai/ha) was 50 and the “Plant response rating, Ryegrass, Italian” value ([4]; 62 g ai/ha) was 60. For the same molecule, the “Plant response rating, Ryegrass, Italian” value ([4]; 125 g ai/ha) was 65, the “Plant response rating, Russian Thistle” value ([5]; 16 g ai/ha) was 10 and the “Plant response rating, Russian Thistle” value ([5]; 31 g ai/ha) was 10. For the same molecule, the “Plant response rating, Russian Thistle” value ([5]; 62 g ai/ha) was 25, the “Plant response rating, Russian Thistle” value ([5]; 125 g ai/ha) was 70 and the “Plant response rating, Blackgrass” value ([6]; 16 g ai/ha) was 20. The “Plant response rating, Blackgrass” value ([6]; 31 g ai/ha) was 55, the “Plant response rating, Blackgrass” value ([6]; 62 g ai/ha) was 60 and the “Plant response rating, Blackgrass” value ([6]; 125 g ai/ha) was 75. The “Plant response rating, Bluegrass” value ([7]; 16 g ai/ha) was 50, the “Plant response rating, Bluegrass” value ([7]; 31 g ai/ha) was 50 and the “Plant response rating, Bluegrass” value ([7]; 62 g ai/ha) was 60. The “Plant response rating, Bluegrass” value ([7]; 125 g ai/ha) was 70, the “Plant response rating, Canarygrass” value ([8]; 16 g ai/ha) was 35 and the “Plant response rating, Canarygrass” value ([8]; 31 g ai/ha) was 65. For the same molecule, the “Plant response rating, Canarygrass” value ([8]; 62 g ai/ha) was 70, the “Plant response rating, Canarygrass” value ([8]; 125 g ai/ha) was 75 and the “Plant response rating, Chamomile” value ([9]; 16 g ai/ha) was 0. The “Plant response rating, Chamomile” value ([9]; 31 g ai/ha) was 0, the “Plant response rating, Chamomile” value ([9]; 62 g ai/ha) was 5 and the “Plant response rating, Chamomile” value ([9]; 125 g ai/ha) was 15. For the same molecule, the “Plant response rating, Chickweed” value ([10]; 16 g ai/ha) was 65, the “Plant response rating, Chickweed” value ([10]; 31 g ai/ha) was 65 and the “Plant response rating, Chickweed” value ([10]; 62 g ai/ha) was 85. For the same molecule, the “Plant response rating, Chickweed” value ([10]; 125 g ai/ha) was 90, the “Plant response rating, Bromegrass, Downy” value ([11]; 16 g ai/ha) was 30 and the “Plant response rating, Bromegrass, Downy” value ([11]; 31 g ai/ha) was 35. The “Plant response rating, Bromegrass, Downy” value ([11]; 62 g ai/ha) was 40, the “Plant response rating, Bromegrass, Downy” value ([11]; 125 g ai/ha) was 60 and the “Plant response rating, Field Poppy” value ([12]; 16 g ai/ha) was 55. The “Plant response rating, Field Poppy” value ([12]; 31 g ai/ha) was 75, the “Plant response rating, Field Poppy” value ([12]; 62 g ai/ha) was 100 and the “Plant response rating, Field Poppy” value ([12]; 125 g ai/ha) was 100. For the same molecule, the “Plant response rating, Field Violet” value ([13]; 16 g ai/ha) was 65, the “Plant response rating, Field Violet” value ([13]; 31 g ai/ha) was 65 and the “Plant response rating, Field Violet” value ([13]; 62 g ai/ha) was 90. The “Plant response rating, Field Violet” value ([13]; 125 g ai/ha) was 95, the “Plant response rating, Foxtail, Green” value ([14]; 16 g ai/ha) was 10 and the “Plant response rating, Foxtail, Green” value ([14]; 31 g ai/ha) was 15. For the same molecule, the “Plant response rating, Foxtail, Green” value ([14]; 62 g ai/ha) was 60, the “Plant response rating, Foxtail, Green” value ([14]; 125 g ai/ha) was 70 and the “Plant response rating, Kochia” value (kochia (Kochia scoparia) [15]; 16 g ai/ha) was 85. The “Plant response rating, Kochia” value (kochia (Kochia scoparia) [15]; 31 g ai/ha) was 100, the “Plant response rating, Kochia” value (kochia (Kochia scoparia) [15]; 62 g ai/ha) was 100 and the “Plant response rating, Kochia” value (kochia (Kochia scoparia) [15]; 125 g ai/ha) was 100. For the same molecule, the “Plant response rating, Oilseed Rape” value ([16]; 16 g ai/ha) was 75, the “Plant response rating, Oilseed Rape” value ([16]; 31 g ai/ha) was 75 and the “Plant response rating, Oilseed Rape” value ([16]; 62 g ai/ha) was 85. The “Plant response rating, Oilseed Rape” value ([16]; 125 g ai/ha) was 95, the “Plant response rating, Pigweed” value ([17]; 16 g ai/ha) was 100 and the “Plant response rating, Pigweed” value ([17]; 31 g ai/ha) was 100. For the same molecule, the “Plant response rating, Pigweed” value ([17]; 62 g ai/ha) was 100, the “Plant response rating, Pigweed” value ([17]; 125 g ai/ha) was 100 and the “Plant response rating, Speedwell” value ([18]; 16 g ai/ha) was 40. The “Plant response rating, Speedwell” value ([18]; 31 g ai/ha) was 50, the “Plant response rating, Speedwell” value ([18]; 62 g ai/ha) was 80 and the “Plant response rating, Speedwell” value ([18]; 125 g ai/ha) was 80. For the same molecule, the “Plant response rating, Barley, Spring” value ([19]; 16 g ai/ha) was 10, the “Plant response rating, Barley, Spring” value ([19]; 31 g ai/ha) was 15 and the “Plant response rating, Barley, Spring” value ([19]; 62 g ai/ha) was 20. For the same molecule, the “Plant response rating, Barley, Spring” value ([19]; 125 g ai/ha) was 30, the “Plant response rating, Wheat, Spring” value ([20]; 16 g ai/ha) was 0 and the “Plant response rating, Wheat, Spring” value ([20]; 31 g ai/ha) was 5. The “Plant response rating, Wheat, Spring” value ([20]; 62 g ai/ha) was 5 and the “Plant response rating, Wheat, Spring” value ([20]; 125 g ai/ha) was 15.
